Data published in patent US9856279B2 (AGIOS PHARMACEUTICALS, INC, priority 2011, dated 2018).

Assays:
[1] = target: IDH1 R132H (Homo sapiens, UniProt O75874, R132H); test: Assay for IDH1 R132H inhibitors (NADPH/aKG, resazurin detection); format: biochemical; conditions: enzyme assay of Example 12; read-out: IDH1R132H IC50
Procedure, shortened: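 Compound added to substrate mix (8 uM NADPH, 2 mM aKG), then enzyme mix (0.2 μg/ml IDH1 R132H); 50 min RT in 20 mM Tris pH 7.5, 150 mM NaCl, 10 mM MgCl2, 0.03% BSA. Resazurin detection mix (30 μM) 5 min RT; resorufin fluorescence Ex544/Em590.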

[2] = tested on: HT1080 cells; test: Cellular assay for IDH1m inhibitors: inhibition of 2-HG production (LC-MS, 48 hours) in HT1080 cells; format: cell-based; conditions: Homo sapiens, HT-1080; inhibition of 2-HG production, HT1080 cells; read-out: HT1080 IC50
Procedure, shortened: (§1)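 5000 cells/well, DMEM + 10% FBS, overnight 37 °C/5% CO2; compound added (0.2% DMSO final), 48 h; medium sampled for LC-MS 2-HG; IC50 vs DMSO control.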

[3] = tested on: U87MG cells; test: Cellular assay for IDH1m inhibitors: inhibition of 2-HG production (LC-MS, 48 hours) in U87MG cells; format: cell-based; conditions: Homo sapiens, U-87 MG, inhibition of 2-HG production, U87R132H cells; read-out: U87R132H IC50
Procedure, shortened: as §1

IDH1 R132H, sequence (O75874 whole entry R132H): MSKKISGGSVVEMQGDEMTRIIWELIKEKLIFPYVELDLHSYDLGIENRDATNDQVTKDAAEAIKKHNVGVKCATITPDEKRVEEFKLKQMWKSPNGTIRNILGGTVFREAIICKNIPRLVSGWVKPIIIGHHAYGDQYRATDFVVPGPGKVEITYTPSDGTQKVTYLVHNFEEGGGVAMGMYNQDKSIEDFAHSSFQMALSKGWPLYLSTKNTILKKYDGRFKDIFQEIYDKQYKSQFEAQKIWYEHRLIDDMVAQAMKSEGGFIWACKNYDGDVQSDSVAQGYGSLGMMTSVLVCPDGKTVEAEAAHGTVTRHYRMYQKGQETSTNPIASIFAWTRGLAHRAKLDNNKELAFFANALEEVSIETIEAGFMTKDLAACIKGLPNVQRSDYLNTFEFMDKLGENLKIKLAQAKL

Row | SMILES | IC50 [1] [nM] | IC50 [2] [nM] | IC50 [3] [nM]
1 | C=Cc1cc(-c2c(C3CC3)nc(N3CCN(C(=O)CCOC)[C@H](C4CC4)C3)c(C#N)c2C)ccn1 [Compound 558, (R)-2-cyclopropyl-6-(3-cyclopropyl-4-(3-methoxypropanoyl)piperazin-1-yl)-4-methyl-2′-vinyl-3,4′-bipyridine-5-carbonitrile] | < 500 | < 500 | < 500
2 | C=Cc1cc(-c2cc(C#N)c(N3CCN(C(=O)CC(C)(C)O)[C@H](C4CC4)C3)nc2C2CC2)ccn1 [Compound 561, (R)-2-cyclopropyl-6-(3-cyclopropyl-4-(3-hydroxy-3-methylbutanoyl)piperazin-1-yl)-2′-vinyl-3,4′-bipyridine-5-carbonitrile] | < 500 | < 500 | < 500
3 | C=Cc1cc(-c2cc(C#N)c(N3CCN(C(C)=O)[C@H](C4CC4)C3)nc2C2CC2)ccn1 [Compound 562, (R)-6-(4-acetyl-3-cyclopropylpiperazin-1-yl)-2-cyclopropyl-2′-vinyl-3,4′-bipyridine-5-carbonitrile] | < 500 | < 500 | < 500
4 | C=Cc1cc2c(-c3cc(C#N)c(N4CCN(C(=O)C5CC5)[C@H](C5CC5)C4)nc3C3CC3)cccc2cn1 [Compound 565, (R)-2-(4-(cyclopropanecarbonyl)-3-cyclopropylpiperazin-1-yl)-6-cyclopropyl-5-(3-vinylisoquinolin-5-yl)nicotinonitrile] | < 500 | 500 to 1000 | 500 to 1000
5 | C=Cc1cc(-c2cc(C#N)c(N3CCN(C(=O)CC(C)O)[C@H](C4CC4)C3)nc2C2CC2)ccn1 (stereo partly drawn) [Compound 568, 2-cyclopropyl-6-((3R)-3-cyclopropyl-4-(3-hydroxybutanoyl)piperazin-1-yl)-2′-vinyl-3,4′-bipyridine-5-carbonitrile] | < 500 | < 500 | < 500
6 | C=Cc1cc(-c2cc(C#N)c(N3CCN(C(=O)COCC)[C@H](C)C3)nc2C2CC2)ccn1 [Compound 573, (R)-2-cyclopropyl-6-(4-(2-ethoxyacetyl)-3-methylpiperazin-1-yl)-2′-vinyl-3,4′-bipyridine-5-carbonitrile] | < 500 | < 500 | < 500
7 | C=Cc1cnc2c(-c3cc(C#N)c(N4CCN(C(=O)CCOC)[C@H](C)C4)nc3C3CC3)cccc2n1 [Compound 579, (R)-6-cyclopropyl-2-(4-(3-methoxypropanoyl)-3-methylpiperazin-1-yl)-5-(2-vinylquinoxalin-5-yl)nicotinonitrile] | < 500 | < 500 | < 500
8 | C=Cc1cc(-c2cc(C#N)c(N3CCN(C(=O)CCOC)[C@H](C)C3)nc2C2CC2)c2ccncc2n1 [Compound 580, (R)-6-cyclopropyl-2-(4-(3-methoxypropanoyl)-3-methylpiperazin-1-yl)-5-(2-vinyl-1,7-naphthyridin-4-yl)nicotinonitrile] | < 500 | < 500 | < 500
9 | C=Cc1cc(Nc2cc(C#N)c(N3CCN(C(=O)CCO)[C@H](C)C3)nc2C2CC2)ccn1 [Compound 581, (R)-6-cyclopropyl-2-(4-(3-hydroxypropanoyl)-3-methylpiperazin-1-yl)-5-((2-vinylpyridin-4-yl)amino)nicotinonitrile] | < 500 | < 500 | < 500
10 | C=Cc1cc(-c2cc(C#N)c(N3CCN(C(=O)C[C@@H](C)O)[C@H](C4CC4)C3)nc2C2CC2)ccn1 [Compound 585, 2-cyclopropyl-6-((R)-3-cyclopropyl-4-((R)-3-hydroxybutanoyl)piperazin-1-yl)-2′-vinyl-3,4′-bipyridine-5-carbonitrile] | < 500 | < 500 | < 500
11 | C=Cc1cc(-c2cc(C#N)c(N3CCN(C(=O)CCO)[C@@H](C4CC4)C3)nc2C2CC2)ccn1 [Compound 587, (S)-2-cyclopropyl-6-(3-cyclopropyl-4-(3-hydroxypropanoyl)piperazin-1-yl)-2′-vinyl-[3,4′-bipyridine]-5-carbonitrile] | < 500 | < 500 | < 500
12 | C=Cc1cc(-c2c(C3CC3)nc(N3CCN(C(=O)CCO)[C@H](C4CC4)C3)c(C#N)c2C)ccn1 [Compound 589, (R)-2-cyclopropyl-6-(3-cyclopropyl-4-(3-hydroxypropanoyl)piperazin-1-yl)-4-methyl-2′-vinyl-3,4′-bipyridine-5-carbonitrile] | < 500 | < 500 | < 500
13 | C=Cc1cc(-c2cc(C#N)c(N3CCN(C(=O)COC)[C@H](C4CC4)C3)nc2C2CC2)ccn1 [Compound 590, (R)-2-cyclopropyl-6-(3-cyclopropyl-4-(2-methoxyacetyl)piperazin-1-yl)-2′-vinyl-3,4′-bipyridine-5-carbonitrile] | < 500 | < 500 | < 500
14 | C=Cc1cc(-c2cc(C#N)c(N3CCN(C(=O)CCO)[C@H](C)C3)nc2C2CC2)c2ccccc2n1 [Compound 591, (R)-6-cyclopropyl-2-(4-(3-hydroxypropanoyl)-3-methylpiperazin-1-yl)-5-(2-vinylquinolin-4-yl)nicotinonitrile] | < 500 | < 500 | < 500
15 | C=Cc1cc(-c2cc(C#N)c(N3CCN(C(=O)CCOC)[C@H](C)C3)nc2C2CC2)c2ccccc2n1 [Compound 592, (R)-6-cyclopropyl-2-(4-(3-methoxypropanoyl)-3-methylpiperazin-1-yl)-5-(2-vinylquinolin-4-yl)nicotinonitrile] | < 500 | < 500 | < 500
16 | C=Cc1cc(-c2cc(C#N)c(N3CCN(C(=O)C[C@H](C)O)[C@H](C4CC4)C3)nc2C2CC2)ccn1 [Compound 595, 2-cyclopropyl-6-((R)-3-cyclopropyl-4-((S)-3-hydroxybutanoyl)piperazin-1-yl)-2′-vinyl-3,4′-bipyridine-5-carbonitrile] | < 500 | < 500 | < 500
17 | C=Cc1cc(-c2cc(C#N)c(N3CCN(C(=O)CCOC)[C@H](C)C3)nc2C2CC2)ncn1 [Compound 597, (R)-6-cyclopropyl-2-(4-(3-methoxypropanoyl)-3-methylpiperazin-1-yl)-5-(6-vinylpyrimidin-4-yl)nicotinonitrile] | < 500 | < 500 | < 500
18 | C=Cc1cc(-c2cc(C#N)c(N3CCN(C(=O)CCOC)[C@H](C)C3)nc2C2CC2)c2cccnc2n1 [Compound 599, (R)-6-cyclopropyl-2-(4-(3-methoxypropanoyl)-3-methylpiperazin-1-yl)-5-(2-vinyl-1,8-naphthyridin-4-yl)nicotinonitrile] | < 500 | < 500 | < 500
19 | C=Cc1ncc2c(-c3cc(C#N)c(N4CCN(C(=O)CCOC)[C@H](C)C4)nc3C3CC3)cccc2n1 [Compound 603, (R)-6-cyclopropyl-2-(4-(3-methoxypropanoyl)-3-methylpiperazin-1-yl)-5-(2-vinylquinazolin-5-yl)nicotinonitrile] | < 500 | < 500 | < 500
20 | C=Cc1cnc2c(-c3cc(C#N)c(N4CCN(C(=O)CCOC)[C@H](C(C)C)C4)nc3C3CC3)cccc2n1 [Compound 605, (R)-6-cyclopropyl-2-(3-isopropyl-4-(3-methoxypropanoyl)piperazin-1-yl)-5-(2-vinylquinoxalin-5-yl)nicotinonitrile] | < 500 | < 500 | < 500
